Measurements taken from US12071434B2, “Heterocyclic compound” (Takeda Pharmaceutical Company Limited, priority 2018, dated 2024).

Target: T1, human orexin type 2 receptor (Homo sapiens, UniProt O43614)
T1 construct: expressed in transfected cells
T1 sequence (O43614 1-444): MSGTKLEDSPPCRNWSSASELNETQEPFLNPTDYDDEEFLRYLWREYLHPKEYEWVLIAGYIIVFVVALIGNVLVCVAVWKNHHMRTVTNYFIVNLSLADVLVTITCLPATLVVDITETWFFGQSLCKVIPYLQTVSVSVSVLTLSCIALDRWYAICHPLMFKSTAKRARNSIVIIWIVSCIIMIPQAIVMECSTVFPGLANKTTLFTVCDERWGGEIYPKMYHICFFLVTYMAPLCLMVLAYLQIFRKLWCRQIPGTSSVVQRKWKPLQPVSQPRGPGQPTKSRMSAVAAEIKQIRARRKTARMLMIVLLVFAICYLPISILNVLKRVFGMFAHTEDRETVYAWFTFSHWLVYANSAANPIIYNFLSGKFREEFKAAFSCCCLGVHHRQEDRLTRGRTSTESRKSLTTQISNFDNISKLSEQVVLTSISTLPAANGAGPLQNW
Experiment: Measurement of orexin type 2 receptor agonist activity (calcium fluorescence, Fluo-4 AM, FDSS) in CHO cells forcibly expressing human OX2 receptor
Type: cell-based
Conditions: test compound 3 μM, DMSO = 0%, orexin A (human) 10 nM = 100%
Excerpt: To obtain a cell clone stably expressing human orexin type 2 receptor, human orexin type 2 receptor cDNA was inserted into pcDNA3.1(+) plasmid vector (Invitrogen), and a plasmid DNA for expression of human orexin type 2 receptor (pcDNA3.1(+)/hOX2R) was cloned. The plasmid DNA was introduced into CHO-dhfr cell by an electroporation method, and human orexin type 2 receptor expressing clone cells were obtained by limiting dilution method by using G418 drug resistance as a selection marker.
CHO cells forcibly expressing human OX2 receptor were seeded in each well of 384 well black transparent bottom plate (BD Falcon) at 7,500 cells/well, and cultured for one day in a 5% CO2 incubator at 37° C. After removal of the medium in the cell plate, assay buffer A containing a calcium indicator (HBSS (Thermo Fisher Scientific), 20 mM HEPES (Thermo Fisher Scientific), 0.1% BSA (Sigma-Aldrich), 2.5 μg/mL Fluo-4 AM (DOJINDO Chemical), 0.08% Pluronic F127 (DOJINDO Chemical), 1.25 mM probenecid (DOJINDO Chemical)) was added at 30 μL/well. The plate was stood for 30 min in a 5% CO2 incubator at 37° C., and further stood at room temperature for 30 min. A test compound prepared by diluting with assay buffer B (HBSS, 20 mM HEPES, 0.1% BSA) was added at 10 μL/well, and the fluorescence value was measured by FDSSpCELL (Hamamatsu Photonics K.K.) every one sec for 1 min, and thereafter every two sec for 1 min 40 sec. The activity (%) of the test compound was calculated assuming that variation in the fluorescence value when DMSO was added instead of the test compound was 0%, and variation in the fluorescence value when orexin A (human) (PEPTIDE INSTITUTE, INC.) was added at the final concentration of 10 nM was 100%.

SMILES | 0X2R agonist activity (3 μM, %)
Cc1nn(C)c(=O)c2c1CC[C@H](NS(C)(=O)=O)[C@@H]2Cc1cccc(-c2ccccc2)c1 (racemic) [Example 96, rac-N-{(5R,6S)-5-[([1,1′-biphenyl]-3-yl)methyl]-1,3-dimethyl-4-oxo-3,4,5,6,7,8-hexahydrophthalazin-6-yl}methanesulfonamide] | 71%
CCS(=O)(=O)NC1CCc2c(C)nn(C)c(=O)c2C1Cc1cccc(-c2ccccc2)c1 (racemic) [Example 97, rac-N-{(5R,6S)-5-[([1,1′-biphenyl]-3-yl)methyl]-1,3-dimethyl-4-oxo-3,4,5,6,7,8-hexahydrophthlalazin-6-yl}ethanesulfonamide] | 82%
CCS(=O)(=O)N[C@H]1CCc2ncn(C(C)C)c(=O)c2[C@H]1Cc1cccc(-c2cc(C)ccn2)c1 (racemic) [Example 98, rac-N-[(5R,6S)-5-{[3-(4-methylpyridin-2-yl)phenyl]methyl}-4-oxo-3-(propan-2-yl)-3,4,5,6,7,8-hexahydroquinazolin-6-yl]ethanesulfonamide] | 107%
CCc1ccc2n(c1=O)C(Cc1cccc(-c3cc(F)cc(F)c3)c1)C(NS(C)(=O)=O)CC2 (racemic) [Example 101, rac-N-{(3S,4S)-4-[(3′,5′-difluoro[1,1′-biphenyl]-3-yl)methyl]-7-ethyl-6-oxo-1,3,4,6-tetrahydro-2H-quinozilin-3-yl}methanesulfonamide] | 98%
CCS(=O)(=O)N[C@H]1CCc2ncn(C(C)C)c(=O)c2[C@H]1Cc1cccc(-c2cc(C)cc(C)n2)c1 (racemic) [Example 102, rac-N-[(5R,6S)-5-{[3-(4,6-dimethylpyridin-2-yl)phenyl]methyl}-4-oxo-3-(propan-2-yl)-3,4,5,6,7,8-hexahydroquinazolin-6-yl]ethanesulfonamide] | 100%
CS(=O)(=O)N[C@H]1CCc2ncn(CC3CC3)c(=O)c2[C@H]1Cc1cccc(-c2ccccc2)c1 (racemic) [Example 103, rac-N-[(5R,6S)-5-[([1,1′-biphenyl]-3-yl)methyl]-3-(cyclopropylmethyl)-4-oxo-3,4,5,6,7,8-hexahydroquinazolin-6-yl]methanesulfonamide] | 79%
CCc1ccc2n(c1=O)[C@@H](Cc1cccc(-c3ccccc3)c1F)[C@@H](NS(C)(=O)=O)CC2 (racemic) [Example 104, rac-N-{(3S,4S)-7-ethyl-4-[(2-fluoro[1,1′-biphenyl]-3-yl)methyl]-6-oxo-1,3,4,6-tetrahydro-2H-quinolizin-3-yl}methanesulfonamide] | 89%
Cc1cccc(-c2cccc(C[C@@H]3c4c(ncn(C(C)C)c4=O)CC[C@@H]3NS(C)(=O)=O)c2)c1 (racemic) [Example 106, rac-N-[(5R,6S)-5-[(3′-methyl[1,1′-biphenyl]-3-yl)methyl]-4-oxo-3-(propan-2-yl)-3,4,5,6,7,8-hexahydroquinazolin-6-yl]methanesulfonamide] | 103%
Cc1cccc(-c2cccc(C[C@@H]3c4c(ncn(C(C)C)c4=O)CC[C@@H]3NS(C)(=O)=O)c2)c1F (racemic) [Example 108, rac-N-[(5R,6S)-5-[(2′-fluoro-3′-methyl[1,1′-biphenyl]-3-yl)methyl]-4-oxo-3-(propan-2-yl)-3,4,5,6,7,8-hexahydroquinazolin-6-yl]methanesulfonamide] | 100%
CC(C)n1cnc2c(c1=O)[C@@H](Cc1cccc(-c3ccn(C)n3)c1)[C@@H](NS(C)(=O)=O)CC2 (racemic) [Example 117, rac-N-[(5R,6S)-5-{[3-(1-methyl-1H-pyrazol-3-yl)phenyl]-methyl}-4-oxo-3-(propan-2-yl)-3,4,5,6,7,8-hexahydroquinazolin-6-yl]methanesulfonamide] | 97%
CCn1ccc2c(c1=O)[C@@H](Cc1cccc(-c3ccccc3F)c1)[C@@H](NS(C)(=O)=O)CC2 (racemic) [Example 119, rac-N-{(7S,8R)-2-ethyl-8-[(2′-fluoro[1,1′-biphenyl]-3-yl)methyl]-1-oxo-1,2,5,6,7,8-hexahydroisoquinolin-7-yl}methanesulfonamide] | 105%
CCn1ccc2c(c1=O)[C@@H](Cc1cccc(-c3cccc(C)c3F)c1)[C@@H](NS(C)(=O)=O)CC2 (racemic) [Example 120, rac-N-{(7S,8R)-2-ethyl-8-[(2′-fluoro-3′-methyl[1,1′-biphenyl]-3-yl)methyl]-1-oxo-1,2,5,6,7,8-hexahydroisoquinolin-7-yl}methanesulfonamide] | 98%
CCn1ccc2c(c1=O)[C@@H](Cc1cccc(-c3cccc(F)c3F)c1)[C@@H](NS(C)(=O)=O)CC2 (racemic) [Example 124, rac-N-{(7S,8R)-8-[(2′,3′-difluoro[1,1′-biphenyl]-3-yl)methyl]-2-ethyl-1-oxo-1,2,5,6,7,8-hexahydroisoquinolin-7-yl}methanesulfonamide] | 105%
CCn1ccc2c(c1=O)[C@@H](Cc1cccc(-c3cccc4c3OCC4)c1)[C@@H](NS(C)(=O)=O)CC2 (racemic) [Example 126, rac-N-[(7S,8R)-8-{[3-(2,3-dihydro-1-benzofuran-7-yl)phenyl]methyl}-2-ethyl-1-oxo-1,2,5,6,7,8-hexahydroisoquinolin-7-yl]methanesulfonamide] | 103%
CCn1ccc2c(c1=O)[C@@H](Cc1cccc(-c3cc(F)cc(C)c3F)c1)[C@@H](NS(C)(=O)=O)CC2 (racemic) [Example 127, rac-N-{(7S,8R)-8-[(2′,5′-difluoro-3′-methyl[1,1′-biphenyl]-3-yl)methyl]-2-ethyl-1-oxo-1,2,5,6,7,8-hexahydroisoquinolin-7-yl}methanesulfonamide] | 105%
CCn1ccc2c(c1=O)[C@@H](Cc1cccc(-c3cccn(C)c3=O)c1)[C@@H](NS(C)(=O)=O)CC2 (racemic) [Example 129, rac-N-[(7S,8R)-2-ethyl-8-{[3-(1-methyl-2-oxo-1,2-dihydropyridin-3-yl)phenyl]methyl}-1-oxo-1,2,5,6,7,8-hexahydroisoquinolin-7-yl]methanesulfonamide] | 98%
CCc1ccc2n(c1=O)[C@@H](Cc1cccc(-c3cc(F)cc(F)c3)c1F)[C@@H](NS(C)(=O)=O)CC2 (racemic) [Example 132, rac-N-{[3S,4S)-7-ethyl-6-oxo-4-[(2,3′,5′-trifluoro[1,1′-biphenyl]-3-yl)methyl]-1,3,4,6-tetrahydro-2H-quinolizin-3-yl}methanesulfonamide] | 104%
CC(C)n1cnc2c(c1=O)[C@@H](Cc1ccccc1Oc1ccccc1)[C@@H](NS(C)(=O)=O)CC2 (racemic) [Example 133, rac-N-[(5R,6S)-4-oxo-5-[(2-phenoxyphenyl)methyl]-3-(propan-2-yl)-3,4,5,6,7,8-hexahydroquinazolin-6-yl]methanesulfonamide] | 72%
CC(C)n1cnc2c(c1=O)[C@@H](Cc1cccc(-c3ccccc3)c1)[C@@H](NS(=O)(=O)C1CC1)CC2 (racemic) [Example 134, rac-N-[(5R,6S)-5-[([1,1′-biphenyl]-3-yl)methyl]-4-oxo-3-(propan-2-yl)-3,4,5,6,7,8-hexahydroquinazolin-6-yl]cyclopropanesulfonamide] | 111%
CCc1cccc(C[C@H]2[C@@H](NS(C)(=O)=O)CCc3ccc(CC)c(=O)n32)c1 (racemic) [Example 135, rac-N-{(3S,4S)-7-ethyl-4-[(3-ethylphenyl)methyl]-6-oxo-1,3,4,6-tetrahydro-2H-quinolizin-3-yl}methanesulfonamide] | 90%
CCc1ccc2n(c1=O)[C@@H](Cc1cccc(C3CC3)c1)[C@@H](NS(C)(=O)=O)CC2 (racemic) [Example 136, rac-N-{(3S,4S)-4-[(3-cyclopropylphenyl)methyl]-7-ethyl-6-oxo-1,3,4,6-tetrahydro-2H-quinolizin-3-yl}methanesulfonamide] | 89%
Cc1n[nH]c(=O)c2c1CC[C@H](NS(C)(=O)=O)[C@@H]2Cc1cccc(-c2ccccc2)c1 (racemic) [Example 138, rac-N-{(5R,6S)-5-[([1,1′-biphenyl]-3-yl)methyl]-1-methyl-4-oxo-3,4,5,6,7,8-hexahydrophthalazin-6-yl}methanesulfonamide] | 44%
